According to patent publication US6201001A, “Imidazole antiproliferative agents” (Abbott Laboratories, priority 1999, dated 2001):

Columns and labels:
[1] = test system: human colon adenocarcinoma, MDR positive (HCT-15) cells; test: 48-hour cellular proliferation assay, HCT-15 cells (sulforhodamine); format: cell-based; conditions: HCT-15, 48-hour
Procedure: (§1) Compounds of this invention were tested in a 48-hour cellular proliferation assay which uses human colon adenocarcinoma, MDR positive (HCT-15) cells, and human lung large cell carcinoma, MDR negative (NCI-H460) cells, in the 96-well microtitre format described in Skehan P., et al. New Colorimetric Cytotoxicity Assay for Anticancer Drug Screening. 1990, J. Natl. Cancer Inst. 82:1107-1112, hereby incorporated by reference. Briefly, the wells of a microtitre plate were charged sequentially with cultured cells and compounds of the invention (1.0×10^-4 to 1.0×10^-11 M in 10% DMSO prepared by dissolving compounds of the invention in DMSO and adding 11 μL of the DMSO solution to 100 μL of culture medium for a final DMSO concentration of 10%). Two of the following controls were also present in each microtitre plate: a solvent (DMSO) control without drug that yielded a 0% inhibition level and a trichloroacetic acid-treated well that yielded a 100% inhibition level. The cells were grown in culture (37° C., 5% CO2 atmosphere) for 48 hours then fixed by the addition of trichloroacetic acid. The wells were stained with sulforhodamine, washed with 1% acetic acid, and treated with 0.01M tris buffer (100 μL) to solubilize the adherent dye. The absorbance of the dye solution was measured with a Molecular Devices SpectraMax340 plate reader. The percent inhibition values were obtained by calculating the proportional response of the experimental values to the absorbance values of the controls.

[2] = test system: human lung large cell carcinoma, MDR negative (NCI-H460) cells; test: 48-hour cellular proliferation assay, NCI-H460 cells (sulforhodamine); format: cell-based; conditions: NCI-H460, 48-hour
Procedure: as §1

IC50 [1]	IC50 [2]	Structure (SMILES)
220 nM	170 nM	COc1ccc(-c2c(-c3cc(OC)c(OC)c(OC)c3)ncn2C)cc1N [Example 1, 2-methoxy-5-(1-methyl-4-(3,4,5-trimethoxyphenyl)-1H-imidazol-5-yl)phenylamine]
79 nM	34 nM	COc1ccc(-c2ncn(C)c2-c2cc(OC)c(OC)c(OC)c2)cc1N [Example 2, 2-methoxy-5-(1-methyl-5-(3,4,5-trimethoxyphenyl)-1H-imidazol-4-yl)phenylamine]
250 nM	400 nM	COc1cc(-c2ncn(C)c2-c2ccc(N(C)C)cc2)cc(OC)c1OC [Example 4, N,N-dimethyl-4-[1-methyl-4-(3,4,5-trimethoxyphenyl)-1H-imidazol-5-yl]aniline]

Structure (SMILES)	IC50 [1]	IC50 [2]
COc1ccc(-c2c(-c3cc(OC)c(OC)c(OC)c3)ncn2C)cc1F [Example 3, 5-(3-fluoro-4-methoxyphenyl)-1-methyl-4-(3,4,5-trimethoxyphenyl)-1H-imidazole]	850 nM	920 nM
